Experimental findings from PubChem BioAssay AID330 (DTP/NCI, 2004) are described below.

Molecules are shown by their SMILES. Several values for one entry are separate records, joined by “and”; a condition that tells them apart may be missing. Equal entries are not always repeated. Inconclusive results and toxic doses are left out.

For this experiment, the system named is P388 leukemia ip, CD2F1 mice, survival T/C. In words: NCI In Vivo Anticancer Drug Screen. Data for tumor model P388 Leukemia (intraperitoneal) in CD2F1 (CDF1) mice. The conditions noted are these: endpoint: median survival time, higher = longer survival. In outline:
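Mice carrying the transplanted tumor received test compound or vehicle. Survival was recorded in each group, and the value is the treated-group measurement divided by that of the vehicle-treated control group.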

Setting [1] is: dose: 50.0 mg/kg/injection, schedule: Q01DX009 (ip), vehicle: saline with Tween-80.
Where [2] appears, read: dose: 25.0 mg/kg/injection, schedule: Q01DX009 (ip), vehicle: saline.
Where [3] appears, read: dose: 50.0 mg/kg/injection, schedule: Q01DX009 (ip), vehicle: saline.
[4] abbreviates: dose: 100.0 mg/kg/injection, schedule: Q01DX009 (ip), vehicle: saline.
[5] abbreviates: dose: 200.0 mg/kg/injection, schedule: Q01DX009 (ip), vehicle: saline.
The mark [6] stands for this setting: dose: 100.0 mg/kg/injection, schedule: Q01DX001 (ip), vehicle: Klucel (hydroxypropylcellulose) (HPC).
[7] abbreviates: dose: 200.0 mg/kg/injection, schedule: Q01DX001 (ip), vehicle: Klucel (hydroxypropylcellulose) (HPC).
The mark [8] stands for this setting: dose: 400.0 mg/kg/injection, schedule: Q01DX001 (ip), vehicle: Klucel (hydroxypropylcellulose) (HPC).
The mark [9] stands for this setting: dose: 100.0 mg/kg/injection, schedule: Q01DX001 (ip), vehicle: saline with Tween-80.
Where [10] appears, read: dose: 200.0 mg/kg/injection, schedule: Q01DX001 (ip), vehicle: saline with Tween-80.
Setting [11] is: dose: 400.0 mg/kg/injection, schedule: Q01DX001 (ip), vehicle: saline with Tween-80.
[12] abbreviates: dose: 50.0 mg/kg/injection, schedule: Q01DX005 (ip), vehicle: saline with Tween-80.
Where [13] appears, read: dose: 100.0 mg/kg/injection, schedule: Q01DX005 (ip), vehicle: saline with Tween-80.
Where [14] appears, read: dose: 200.0 mg/kg/injection, schedule: Q01DX005 (ip), vehicle: saline with Tween-80.
The mark [15] stands for this setting: dose: 12.5 mg/kg/injection, schedule: Q04DX003 (ip), vehicle: saline.
Setting [16] is: dose: 25.0 mg/kg/injection, schedule: Q04DX003 (ip), vehicle: saline.
Setting [17] is: dose: 50.0 mg/kg/injection, schedule: Q04DX003 (ip), vehicle: saline.

For `C#CC(OC(=O)NC1CCCCC1)(c1ccccc1)c1ccccc1`, the T/C is 100 % of control (dose: 4.4 mg/kg/injection, schedule: Q01DX009 (ip), vehicle: saline with Tween-80); 98 % of control (dose: 6.6 mg/kg/injection, schedule: Q01DX009 (ip), vehicle: saline with Tween-80); 93 % of control (dose: 10.0 mg/kg/injection, schedule: Q01DX009 (ip), vehicle: saline with Tween-80); 100 % of control (dose: 15.0 mg/kg/injection, schedule: Q01DX009 (ip), vehicle: saline with Tween-80); 118 % of control (dose: 22.0 mg/kg/injection, schedule: Q04DX003 (ip), vehicle: saline with Tween-80); 108 % of control (dose: 25.0 mg/kg/injection, schedule: Q04DX003 (ip), vehicle: saline with Tween-80). The T/C was 163 % of control (dose: 33.0 mg/kg/injection, schedule: Q01DX009 (ip), vehicle: saline with Tween-80); 122 % of control (dose: 33.0 mg/kg/injection, schedule: Q04DX003 (ip), vehicle: saline with Tween-80); 102 % of control under setting [1]; 163 % of control (dose: 75.0 mg/kg/injection, schedule: Q04DX003 (ip), vehicle: saline with Tween-80).
As for `O=C1NCCNC1c1ccccc1` (stereo not drawn), the T/C reads like this: under setting [2], 102 % of control; under setting [3], 102 % of control; under setting [4], 98 % of control; under setting [5], 100 % of control.
In the case of `N#CCN=NNc1ccc([N+](=O)[O-])cc1`, the T/C under setting [6] is 115 % of control, the T/C under setting [7] is 107 % of control and the T/C under setting [8] was 116 % of control.
Take `Cn1c2ccccc2c2nnc(N/N=C/c3ccc([N+](=O)[O-])o3)nc21`: the T/C reads like this: under setting [9], 90 % of control; under setting [10], 91 % of control; under setting [11], 96 % of control.
With `NC(=S)N/N=C\c1nccc2c(N)cccc12`, the T/C is 161 % of control (dose: 3.13 mg/kg/injection, schedule: Q01DX009 (ip), vehicle: saline); 153 % of control (dose: 6.25 mg/kg/injection, schedule: Q01DX009 (ip), vehicle: saline with Tween-80); 161 % of control (dose: 6.25 mg/kg/injection, schedule: Q01DX009 (ip), vehicle: saline); 162 % of control (dose: 12.5 mg/kg/injection, schedule: Q01DX009 (ip), vehicle: saline with Tween-80); 150 % of control and 166 % of control (dose: 12.5 mg/kg/injection, schedule: Q01DX009 (ip), vehicle: saline); 155 % of control (dose: 18.8 mg/kg/injection, schedule: Q04DX003 (ip), vehicle: saline). Besides, the T/C was 167 % of control under setting [2]; 152 % of control and 155 % of control under setting [1]; 168 % of control and 181 % of control under setting [3]; 150 % of control (dose: 75.0 mg/kg/injection, schedule: Q01DX009 (ip), vehicle: saline with Tween-80); 155 % of control (dose: 75.0 mg/kg/injection, schedule: Q04DX003 (ip), vehicle: saline); 172 % of control (dose: 150.0 mg/kg/injection, schedule: Q04DX003 (ip), vehicle: saline).
Regarding `COc1ccc2c(c1)CCC1=C2CCS1(=O)=O`, the T/C under setting [12] is 99 % of control, the T/C under setting [13] was 97 % of control and the T/C under setting [14] is 103 % of control.
As for `Cn1c(NC(=O)C(F)(F)F)cc(=O)n(C)c1=O`, the T/C was 102 % of control under setting [12], 95 % of control under setting [13] and 101 % of control under setting [14].
In the case of `CC(=O)OC1C(=O)C2C(CC=C3CC(O)CC(O)C32C)C2CCC(C(C)C3CC(C)C(C)(C)O3)C12C` (stereo not drawn), the T/C runs as follows: under setting [3], 97 % of control; under setting [6], 100 % of control; under setting [4], 101 % of control; under setting [7], 97 % of control; under setting [5], 94 % of control; under setting [8], 96 % of control.
For the molecule `c1ccc(C(SN=C2CCCCC2)(c2ccccc2)c2ccccc2)cc1`, the T/C is, setting by setting: under setting [12], 100 % of control; under setting [13], 91 % of control; under setting [14], 90 % of control.
As for `N#CC(c1ccccc1)C1NC(C(=O)O)CS1` (stereo not drawn), the T/C by setting is: (dose: 50.0 mg/kg/injection, schedule: Q01DX009 (ip), vehicle: suspension in saline) 106 % of control; (dose: 100.0 mg/kg/injection, schedule: Q01DX009 (ip), vehicle: suspension in saline) 93 % of control; (dose: 200.0 mg/kg/injection, schedule: Q01DX009 (ip), vehicle: suspension in saline) 93 % of control.
Turning to `Cc1noc(N)c1-n1c(C)ccc1C`, the T/C was 95 % of control (dose: 100.0 mg/kg/injection, schedule: Q04DX003 (ip), vehicle: saline with Tween-80); 100 % of control (dose: 200.0 mg/kg/injection, schedule: Q04DX003 (ip), vehicle: saline with Tween-80); 100 % of control (dose: 400.0 mg/kg/injection, schedule: Q04DX003 (ip), vehicle: saline with Tween-80).
For the molecule `CCCCCC1(O)OC(=O)C(C)=C1C` (stereo not drawn), the T/C under setting [15] was 100 % of control, the T/C under setting [16] is 100 % of control and the T/C under setting [17] was 122 % of control.
As to `O/N=C/c1c(Cl)nc2sccn12`, the T/C reads like this: (dose: 50.0 mg/kg/injection, schedule: Q01DX001 (ip), vehicle: Klucel (hydroxypropylcellulose) (HPC)) 100 % of control; under setting [6], 100 % of control and 91 % of control; under setting [7], 89 % of control and 97 % of control.
As for `COc1ccc(/C=N\NC(=O)C(=O)N/N=C\c2ccc(OC)cc2)cc1`, the T/C is 103 % of control (dose: 12.5 mg/kg/injection, schedule: Q01DX009 (ip), vehicle: distilled water + alcohol); 100 % of control (dose: 25.0 mg/kg/injection, schedule: Q01DX009 (ip), vehicle: distilled water + alcohol); 94 % of control (dose: 50.0 mg/kg/injection, schedule: Q01DX009 (ip), vehicle: distilled water + alcohol); 89 % of control (dose: 100.0 mg/kg/injection, schedule: Q01DX009 (ip), vehicle: distilled water + alcohol); 108 % of control (dose: 200.0 mg/kg/injection, schedule: Q01DX009 (ip), vehicle: distilled water + alcohol).
As for `CCN(CC)CCNc1ccc(COC(=O)NC)c2oc3ccccc3c(=O)c12`, the T/C runs as follows: (dose: 1.5 mg/kg/injection, schedule: Q01DX005 (ip), vehicle: distilled water + Tween-80) 113 % of control; (dose: 3.0 mg/kg/injection, schedule: Q01DX005 (ip), vehicle: distilled water + Tween-80) 113 % of control; (dose: 6.0 mg/kg/injection, schedule: Q01DX005 (ip), vehicle: distilled water + Tween-80) 113 % of control; (dose: 12.5 mg/kg/injection, schedule: Q01DX005 (ip), vehicle: distilled water + Tween-80) 93 % of control.
In the case of `NN(C(=O)c1ccccc1)C1CCCCC1`, the T/C under setting [15] was 95 % of control, the T/C under setting [16] is 104 % of control and the T/C under setting [17] is 100 % of control.
As to `Cc1cc(C)c[n+](-c2nc3c([O-])n(C)c(=O)n(C)c-3n2)c1`, the T/C by setting is: (dose: 100.0 mg/kg/injection, schedule: Q04DX003 (ip), vehicle: saline) 94 % of control; (dose: 200.0 mg/kg/injection, schedule: Q04DX003 (ip), vehicle: saline) 98 % of control; (dose: 400.0 mg/kg/injection, schedule: Q04DX003 (ip), vehicle: saline) 103 % of control.
Regarding `O=c1c(CSc2c(-c3ccccc3)c(=O)c2=O)c(-c2ccccc2)c1=O`, the T/C by setting is: under setting [9], 101 % of control; under setting [10], 104 % of control; under setting [11], 95 % of control.
Consider `Cc1cc(C(=O)N/N=C/c2cc(Cl)cc(Cl)c2O)c2cc(Br)ccc2n1`, for which the T/C is, setting by setting: under setting [1], 91 % of control; (dose: 100.0 mg/kg/injection, schedule: Q01DX009 (ip), vehicle: saline with Tween-80) 91 % of control; (dose: 200.0 mg/kg/injection, schedule: Q01DX009 (ip), vehicle: saline with Tween-80) 93 % of control.
Turning to `O=c1oc2c(cc1Cl)CCCC2`, the T/C is 96 % of control (dose: 50.0 mg/kg/injection, schedule: Q01DX005 (ip), vehicle: Klucel (hydroxypropylcellulose) (HPC)); 101 % of control (dose: 100.0 mg/kg/injection, schedule: Q01DX005 (ip), vehicle: Klucel (hydroxypropylcellulose) (HPC)); 103 % of control (dose: 200.0 mg/kg/injection, schedule: Q01DX005 (ip), vehicle: Klucel (hydroxypropylcellulose) (HPC)).
